# Patent US20240252688A1, “COMPOSITIONS AND METHODS FOR ENHANCED PROTEIN PRODUCTION” (HDT Bio Corp., priority 2021, published 2024)
# How the values were obtained:
# C57BL/6 mice = test: IM injection of repRNA-SEAP with nanoparticle-encapsulated inhibitors: serum SEAP; format: in vivo; conditions: 500 μM dose level versus equivalent no compound group, days 3-28
# Protocol: The ten candidate compounds were formulated in NP-1 nanoparticle emulsion to evaluate their effect on expression when co-delivered with repRNA. All compounds were readily soluble in non-polar solvents which enabled dissolution in the lipophilic squalene oil phase of NP-1. A probe sonication process was adapted to formulate candidate compounds in 1 mL batches of nanoparticle emulsions. The z-average nanoparticle diameter was measured by dynamic light scattering (DLS) and ranged from 110-130 nm. Activity of compounds formulated in nanoparticle emulsions was tested both in vitro (FIG. 11A). Cells were transfected with 20 ng repRNA per well in the presence of IFN and delivered with empty nanoparticles (no inhibitor) or nanoparticle encapsulating a compound inhibitor delivered at a calculated 0.5 μM per well. […] C57BL/6 female mice (6-8 weeks old; n=3/group) were injected by IM route with 10 μg repRNA-SEAP complexed with empty nanoparticles (no compound) or nanoparticles encapsulating a small molecule inhibitor at 500 μM. The positive control group received an IFNAR-1 blocking monoclonal antibody (MAR1-5A3) by intraperitoneal (IP) injection one day before IM injection of NP-1/repRNA-SEAP. […]
# BALB/c mice = test: Systemic (IV) compounds with IM NP-1/repRNA-ZIKV-117: serum ZIKV-117; format: in vivo; conditions: for ZIKV-117 expression compared to no compound group: compound IV (Dinaciclib 5 mg/kg, CDKI-73 5 mg/kg, AZD4573 1 mg/kg), 10 μg repRNA-ZIKV-117 IM, days 3-28
# Protocol: The purpose of the experiment was to evaluate the effect of systemically administered compound inhibitors on protein expression.
# A molar ratio of nitrogen to phosphate (N:P) for each of the formulation was adjusted. […] Each compound was formulated as an aqueous solution or suspension following instructions from the vendor (MedChemExpress). At the same time as systemic compound treatment, mice were given 10 μg repRNA-encoding ZIKV-117 mAb complexed to nanoparticles by IM injection in the hind leg. Mice were bled on days 3, 5, 7, 10, 14, 21 and 28 after administration of NP-1/repRNA-ZIKV-117, and assayed for ZIKV-117 levels in serum. The positive control group received an IFNAR-1 blocking monoclonal antibody (MAR1-5A3) by intraperitoneal (IP) injection one day before administration of NP-1/repRNA-ZIKV-117.
# IFIT2 [1] = test: NP-35 co-transfection: IFIT2 induction; format: cell-based, human; conditions: NP-35-formulated compound, A549-Dual cells
# NF-κB [2] = test: Single-point screen: NFκB activation (SEAP reporter); format: cell-based, human; conditions: Homo sapiens, 24 h; A549-Dual cells, compound 50 μM pre-treatment, NP-1+mRNA 20 ng/well + IFN; read-out: fold NFkB over IFN
# Description: (§1) The cells produce secreted embryonic alkaline phosphatase (SEAP), under the control of the interferon beta […] minimal promoter fused to five NF-κB binding sites. The cells also secrete lucia luciferase under the control of IFIT2 promoter.
# A549-Dual cells [3] = test: Single-point screen: cell viability by CellTiter-Glo; conditions: A549-Dual cells incubated overnight with compound at 50 μM, then NP-1+mRNA 20 ng/well + IFN 1:50
# Protocol: Finally, cell lysates were assayed with the CellTiter-GLO® assay (Promega) to obtain a luminescent-based measure of cell viability. In summary, the readouts from the high throughput screen included the primary measure of nLuc protein expression and three secondary readouts: IFIT, NF-κB and cell viability.
# For each assay, A549-dual cells were plated at a seeding density of about 5×10^4 cells per well. Cells were incubated overnight with compounds at 50 microMolar (μM) in 1% v/v dimethyl sulfoxide (DMSO). For control wells, 1% DMSO was added to each well. After about 24 hours, the culture medium was removed, and cells were transfected with NP-1+mRNA at 20 ng/mRNA/well in Opti-MEM® media (Thermofisher). Interferon (IFN) was diluted to 1:50 in all test wells except for the RNA only wells and media only wells. Anti-IFN was diluted 1:1000 in “RNA+anti-IFN+IFN” wells. Cells were incubated for 4 hours, and culture medium was added to the Opti-MEM® medium. After 24 hours, assay supernatants were collected and analyzed for nLuc expression, IFIT2 (qLuc), and NFκB (qBLUE-SEAP™, InvivoGen) activation. Cells were then lysed, and cell viability was determined by CellTiter-Glo® (Promega) assay.
# IFIT2 [4] = test: Single-point screen: IFIT2 activation (Lucia luciferase, QUANTI-Luc); format: cell-based, human; conditions: Homo sapiens, 24 h; A549-Dual cells, compound 50 μM pre-treatment, NP-1+mRNA 20 ng/well + IFN; read-out: fold IFIT over IFN
# Description: as §1
# A549-Dual cells [5] = test: Single-point kinase inhibitor library screen: nLuc expression from NP-1+mRNA-nLuc in IFN-treated cells; format: cell-based, human; conditions: Homo sapiens, compound 50 μM pre-treatment, NP-1+mRNA 20 ng/well + IFN, read-out: fold nLuc over RNA + IFN
# Protocol: as §1
# To measure protein expression from mRNA, which is the primary readout for compound down selection, mRNA encoding a secreted version of nanoluciferase (mRNA-nLuc) was used. Protein expression was measured via a luminometer using standard techniques.
# As additional criterion, expression in compound treated cells was compared relative to mRNA-transfected cells without IFN (“RNA only”) (data not shown).
# A library of small molecule kinase inhibitors was screened for the ability to enhance expression of mRNA-encoded genes when co-delivered with mRNA.
# NF-κB [6] = test: NP-35 co-transfection: NF-κB induction; format: cell-based, human; conditions: highest concentrations of NP-35-formulated compound
# Protocol: The objective of this experiment was to evaluate co-transfection of LNP (e.g., NP-35) with lead small molecule inhibitor compounds for enhancing protein expression from repRNA in transfected cells. […] LNP was formulated according to NP-35 formulation. Additionally, nanoparticles were also formulated according to […] formulation. About 5×10^4 A549-Dual cells were incubated at 37° C. with 5% CO2 for 18-24 hours with the compound at a concentration ranging from 1 μg to 0.06 ng. The cells were then treated with repRNA-nLuc, IFN, and nanoparticles (NP-35 or NP-30). The treated cells were incubated at 37° C. with 5% CO2 for 18-24 hours. nLuc expression was measured by Nano-GLO assay and plotted against the concentration of repRNA-nLuc that was used for the transfection (FIG. 14A-14H).
# A549-Dual cells [7] = test: NP-35 co-encapsulating repRNA-nLuc and Dinaciclib: nLuc expression; format: cell-based, human; conditions: 0.5 mM Dinaciclib co-encapsulated, A549-Dual cells + IFN
# Protocol: Briefly, A549-Dual cells were incubated at 37° C. with 5% CO2 for 18-24 hours. […] About 5×10^4 cells were transfected with the formulation at different concentrations in the presence of IFN. The transfected cells were incubated at 37° C. with 5% CO2 for 18-24 hours. nLuc expression was measured by Nano-GLO assay and plotted against the concentration of repRNA-nLuc that was used for the transfection (FIG. 15).
# [8] = target: mouse IFN alpha/beta receptor (IFNAR-1) (mouse) (UniProt P33896); test: cell-based or functional assay
# Sequence of mouse IFN alpha/beta receptor (IFNAR-1) (mouse) (P33896 27-590 limits assumed): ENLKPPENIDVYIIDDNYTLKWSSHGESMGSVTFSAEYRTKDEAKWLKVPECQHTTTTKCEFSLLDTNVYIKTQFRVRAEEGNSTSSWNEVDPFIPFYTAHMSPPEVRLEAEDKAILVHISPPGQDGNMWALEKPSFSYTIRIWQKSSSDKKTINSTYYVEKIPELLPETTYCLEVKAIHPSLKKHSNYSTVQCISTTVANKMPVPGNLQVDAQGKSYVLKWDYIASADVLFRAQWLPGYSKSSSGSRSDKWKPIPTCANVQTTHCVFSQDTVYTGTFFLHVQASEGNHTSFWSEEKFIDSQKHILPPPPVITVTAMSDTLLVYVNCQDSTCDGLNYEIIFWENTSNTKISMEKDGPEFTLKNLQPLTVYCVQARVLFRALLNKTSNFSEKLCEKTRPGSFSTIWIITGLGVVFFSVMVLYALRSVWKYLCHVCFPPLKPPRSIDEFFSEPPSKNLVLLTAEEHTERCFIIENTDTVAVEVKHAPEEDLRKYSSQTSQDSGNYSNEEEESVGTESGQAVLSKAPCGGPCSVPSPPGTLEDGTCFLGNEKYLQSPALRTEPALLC
compound,measurement,setting,value
"CC(=O)N[C@@H]1CCC[C@H](C(=O)Nc2cc(-c3cnn4c3CC(C)(C)C4)c(Cl)cn2)C1 [AZD4573, (1S,3R)-3-acetamido-N-[5-chloro-4-(5,5-dimethyl-4,6-dihydropyrrolo[1,2-b]pyrazol-3-yl)pyridin-2-yl]cyclohexane-1-carboxamide]","total protein (SEAP) expression, AUC of expression kinetics",C57BL/6 mice,significant increase in total protein expression
same,ZIKV-117 expression compared to no compound group,BALB/c mice,higher total expression than no compound group but not statistically significant
same,IFIT2 induction,IFIT2 [1],significant dose-dependent reduction in IFIT2 induction
"COc1ccc(F)cc1-c1cc(NC(=O)[C@@H]2CCCNC2)ncc1Cl [CDK-IN-2, (3R)-N-[5-chloro-4-(5-fluoro-2-methoxyphenyl)pyridin-2-yl]piperidine-3-carboxamide]",fold induction at 50 µM,NF-κB [2],0.28
same,% viability,A549-Dual cells [3],23%
same,fold induction at 50 µM,IFIT2 [4],1.06
same,fold induction at 50 µM,A549-Dual cells [5],157
same,IFN-beta mediated NF-κB induction relative to cells transfected with NP-35,NF-κB [6],slight increase in IFN-beta mediated NF-κB induction
same,IFIT2 induction,IFIT2 [1],significant dose-dependent reduction in IFIT2 induction
"CC(C)n1cnc2c(NCc3nc4c(F)c(F)ccc4[nH]3)nc(N3CCCC[C@H]3CCO)nc21 [CDK12-IN-3, 2-[(2S)-1-[6-[(4,5-difluoro-1H-benzimidazol-2-yl)methylamino]-9-propan-2-ylpurin-2-yl]piperidin-2-yl]ethanol]",IFIT2 induction,IFIT2 [1],significant dose-dependent reduction in IFIT2 induction
"Nc1nc(N[C@H]2C[C@@H]3CC[C@H]2C3)sc1C(=O)c1ccccc1[N+](=O)[O-] [MC180295, [4-amino-2-[[(1S,2S,4R)-2-bicyclo[2.2.1]heptanyl]amino]-1,3-thiazol-5-yl]-(2-nitrophenyl)methanone]",IFN-beta mediated NF-κB induction relative to cells transfected with NP-35,NF-κB [6],slight increase in IFN-beta mediated NF-κB induction
"CCc1cnn2c(NCc3ccc[n+]([O-])c3)cc(N3CCCC[C@H]3CCO)nc12 [Dinaciclib, 2-[(2S)-1-[3-ethyl-7-[(1-oxidopyridin-1-ium-3-yl)methylamino]pyrazolo[1,5-a]pyrimidin-5-yl]piperidin-2-yl]ethanol]",ZIKV-117 expression compared to positive control (anti-IFNAR-1),BALB/c mice; Dinaciclib 5 mg/kg IV,more rapid and higher magnitude expression
same,ZIKV-117 expression compared to no compound group,BALB/c mice,significantly enhanced ZIKV-117 expression
same,nLuc expression relative to NP-35/repRNA-nLuc without Dinaciclib,A549-Dual cells [7],significantly enhanced nLuc expression
same,IFIT2 induction,IFIT2 [1],significant dose-dependent reduction in IFIT2 induction
IFNAR-1 blocking monoclonal antibody (MAR1-5A3),SEAP expression in serum of C57BL/6 mice on day seven after IM injection of NP-1/repRNA-SEAP,[8],10 fold
"CC(C)c1c2cc(-c3ccnc(NC4CCC(NC5CCOCC5)CC4)n3)ccc2nn1C (centres unmarked) [LY2857785, 4-N-[4-(2-methyl-3-propan-2-ylindazol-5-yl)pyrimidin-2-yl]-1-N-(oxan-4-yl)cyclohexane-1,4-diamine]",IFN-beta mediated NF-κB induction relative to cells transfected with NP-35,NF-κB [6],slight increase in IFN-beta mediated NF-κB induction
"Cc1cc(O)c(-c2ccc([C@@H](C)CN)cc2)c2c1[nH]c(=O)c1sccc12 [OTS514, 9-[4-[(2R)-1-aminopropan-2-yl]phenyl]-8-hydroxy-6-methyl-5H-thieno[2,3-c]quinolin-4-one]",fold induction at 50 µM,NF-κB [2],0.35
same,% viability,A549-Dual cells [3],66%
same,fold induction at 50 µM,IFIT2 [4],0.4
same,fold induction at 50 µM,A549-Dual cells [5],349
"CNc1nc(C)c(-c2nc(Nc3cccc(S(N)(=O)=O)c3)ncc2F)s1 [CDKI-73, 3-[[5-fluoro-4-[4-methyl-2-(methylamino)-1,3-thiazol-5-yl]pyrimidin-2-yl]amino]benzenesulfonamide]",IFN-beta mediated NF-κB induction relative to cells transfected with NP-35,NF-κB [6],slight increase in IFN-beta mediated NF-κB induction
same,ZIKV-117 expression compared to no compound group,BALB/c mice,higher total expression than no compound group but not statistically significant
